Reference: the NIST ThermoML archive (doi:10.1021/je800110r)

Details: 313.14 K, Liquid, Vibrating tube method

CCCCCCCCCC [decane]
Details	mass density [kg/m3]
15552 kPa	727.4
15582 kPa	727.2
15613 kPa	727.3
15637 kPa	727.3
15663 kPa	727.3
15908 kPa	727.6
15941 kPa	727.5
15972 kPa	727.6
16007 kPa	727.6
16031 kPa	727.6
16067 kPa	727.7
16091 kPa	727.6
16114 kPa	727.7
16151 kPa	727.8
16180 kPa	727.7
16204 kPa	727.8
16241 kPa	727.8
16273 kPa	727.8
16306 kPa	727.9
16338 kPa	727.9
16359 kPa	727.8
16381 kPa	727.9
16402 kPa	728
16427 kPa	727.9
16452 kPa	727.9
16478 kPa	728
16507 kPa	728
16537 kPa	728
16566 kPa	728
16587 kPa	728
16618 kPa	728.1
16648 kPa	728.1
16683 kPa	728.1
16721 kPa	728.2
16748 kPa	728.1
16784 kPa	728.2
16824 kPa	728.1
16860 kPa	728.2
16883 kPa	728.2
16907 kPa	728.3
16935 kPa	728.3
16975 kPa	728.4
16996 kPa	728.4
17023 kPa	728.3
17046 kPa	728.4
17070 kPa	728.3
17101 kPa	728.4
17124 kPa	728.5
17149 kPa	728.5
17170 kPa	728.4
17191 kPa	728.4
17222 kPa	728.6
17243 kPa	728.6
17264 kPa	728.5
17296 kPa	728.6
17320 kPa	728.5
17348 kPa	728.5
17377 kPa	728.5
17408 kPa	728.6
17430 kPa	728.7
17455 kPa	728.7
17481 kPa	728.6
17502 kPa	728.8
17528 kPa	728.7
17557 kPa	728.8
17609 kPa	728.8
17763 kPa	728.9
17790 kPa	728.9
17820 kPa	729
17842 kPa	729
17877 kPa	729.1
17905 kPa	729
17931 kPa	729.1
17958 kPa	729
17988 kPa	729.1
18011 kPa	729.1
18042 kPa	729.1
18062 kPa	729.2
18096 kPa	729.1
18131 kPa	729.2
18170 kPa	729.2
18202 kPa	729.2
18226 kPa	729.2
18249 kPa	729.2
18273 kPa	729.3
18301 kPa	729.3
18325 kPa	729.4
18346 kPa	729.4
18374 kPa	729.4
18403 kPa	729.5
18439 kPa	729.3
18460 kPa	729.4
18494 kPa	729.4
18522 kPa	729.5
18544 kPa	729.6
18569 kPa	729.5
18600 kPa	729.6
18628 kPa	729.5
18646 kPa	729.5
18671 kPa	729.5
18697 kPa	729.6
18722 kPa	729.5
18748 kPa	729.6
18781 kPa	729.6
18812 kPa	729.7
18842 kPa	729.7
18869 kPa	729.7
18894 kPa	729.8
18927 kPa	729.8
18953 kPa	729.7
18979 kPa	729.8
19001 kPa	729.8
19027 kPa	729.8
19054 kPa	729.8
19076 kPa	729.8
19102 kPa	729.9
19133 kPa	729.9
19152 kPa	730
19187 kPa	730
19210 kPa	729.9
19237 kPa	729.9
19256 kPa	730
19287 kPa	730.1
19326 kPa	730
19353 kPa	730
19380 kPa	730.1
19412 kPa	730.1
19441 kPa	730.2
19466 kPa	730.2
19487 kPa	730.2
19512 kPa	730.2
19546 kPa	730.2
19564 kPa	730.2
19582 kPa	730.2
19606 kPa	730.3
19634 kPa	730.2
19655 kPa	730.3
19686 kPa	730.3
19711 kPa	730.4
19727 kPa	730.4
19745 kPa	730.4
19773 kPa	730.4
19804 kPa	730.3
19823 kPa	730.5
19848 kPa	730.4
19867 kPa	730.5
19889 kPa	730.5
19908 kPa	730.5
19940 kPa	730.5
19959 kPa	730.6
19985 kPa	730.5
20008 kPa	730.6
20028 kPa	730.6
20055 kPa	730.6
20074 kPa	730.5
20097 kPa	730.6
20126 kPa	730.4
20150 kPa	730.6
20172 kPa	730.7
20205 kPa	730.7
20221 kPa	730.7
20238 kPa	730.8
20257 kPa	730.7
20287 kPa	730.8
20308 kPa	730.7
20329 kPa	730.8
20385 kPa	730.8
20430 kPa	730.9
20460 kPa	730.9
20488 kPa	730.9
20511 kPa	731
20535 kPa	730.9
20586 kPa	731
20611 kPa	731
20632 kPa	730.9
20663 kPa	731.1
20687 kPa	731.1
20708 kPa	731
20732 kPa	731.2
20767 kPa	731.1
20791 kPa	731.2
20819 kPa	731.1
20850 kPa	731.2
20872 kPa	731.1
20900 kPa	731.1
20932 kPa	731.4
21014 kPa	731.3
21046 kPa	731.3
21075 kPa	731.3
21144 kPa	731.3
21163 kPa	731.4
21200 kPa	731.3
21226 kPa	731.6
21308 kPa	731.5
21387 kPa	731.5
21414 kPa	731.7
21440 kPa	731.6
21471 kPa	731.6
21495 kPa	731.7
21516 kPa	731.6
21536 kPa	731.6
21563 kPa	731.7
21597 kPa	731.7
21621 kPa	731.6
21642 kPa	731.8
21663 kPa	731.8
21686 kPa	731.8
21728 kPa	731.9
21752 kPa	731.8
21771 kPa	731.8
21827 kPa	731.8
21852 kPa	731.9
21883 kPa	731.9
21911 kPa	731.9
21932 kPa	731.9
21953 kPa	731.9
21985 kPa	731.9
22006 kPa	731.9
22034 kPa	732
22060 kPa	732.1
22083 kPa	732.1
22115 kPa	732
22140 kPa	732.1
22165 kPa	732
22198 kPa	732.2
22216 kPa	732
22245 kPa	732.2
22263 kPa	732.1
22292 kPa	732.2
22321 kPa	732.2
22348 kPa	732.2
22374 kPa	732.2
22400 kPa	732.2
22426 kPa	732.3
22522 kPa	732.3
22577 kPa	732.3
22645 kPa	732.5
22672 kPa	732.5
22699 kPa	732.4
22729 kPa	732.6
22756 kPa	732.5
22794 kPa	732.6
22828 kPa	732.6
22855 kPa	732.6
22882 kPa	732.5
22904 kPa	732.6
22939 kPa	732.7
23398 kPa	733
23435 kPa	732.9
23468 kPa	732.9
23492 kPa	733
23529 kPa	733
23554 kPa	733
23579 kPa	733.1
23611 kPa	733.2
23636 kPa	733
23669 kPa	733.1
23699 kPa	733.2
23732 kPa	733.2
23758 kPa	733.2
23792 kPa	733.3
23821 kPa	733.4
23851 kPa	733.2
23873 kPa	733.2
23894 kPa	733.3
23923 kPa	733.4
23954 kPa	733.4
23992 kPa	733.4
24027 kPa	733.4
24054 kPa	733.4
24081 kPa	733.5
24116 kPa	733.5
24142 kPa	733.4
